Values of other authors as cited in patent US7939308B2, “Bio-based method for making mannitol” (The United States of America as represented by the …, priority 2002, dated 2011).
Values after ≈ are worked out from the molar mass of the structure shown.

Conditions: at 25° C.

For `OC[C@@H](O)[C@@H](O)[C@H](O)[C@H](O)CO` [mannitol, Mannitol], the solubility limit is listed as 180 mg/mL (≈ 988 mM).
